# Experimental data published in US20230085307A1, “PYRIDAZINONE COMPOUND AND HERBICIDE” (NISSAN CHEMICAL CORPORATION, priority 2019, published 2023).
# What was measured:
# [1] = system: late watergrass; experiment: Test Example 2: herbicidal activity, application during weed generation under submerged conditions (Table 17, symbol A); format: in vivo, late watergrass (Echinochloa oryzicola); conditions: AAH 320 g/ha; application during weed generation, submerged conditions
# Procedure: [Test Example 2] Herbicidal Activity Test by Application during Weed Generation under Submerged Conditions After alluvial soil was placed into 1/10000 are of Wagner pot, water was poured and mixed to form a submerged condition having a water depth of 4 cm. Seeds of late watergrass, Japanese bulrush, and oval-leafed pondweed were sowed in a mixed manner in the aforementioned pot, and the pot was placed in a greenhouse at 25° C. to 30° C. for growth of the plants. When late watergrass, Japanese bulrush, and oval-leafed pondweed were grown to one leaf stage to two leaf stage, the emulsion agent of the compound of the present invention prepared according to Formulation Example 2 was diluted with water so as to achieve a predetermined herbicide amount, and the diluted emulsion agent was applied to the surface of the water. Three weeks after the herbicide application, the effect of the herbicide on each plant was evaluated according to the criteria of Test Example 1.
# [2] = system: Japanese bulrush; experiment: Test Example 2: herbicidal activity, application during weed generation under submerged conditions (Table 17, symbol B); format: in vivo, Japanese bulrush (Schoenoplectus juncoides); conditions: AAH 320 g/ha; application during weed generation, submerged conditions
# Outline: (§1)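 Alluvial soil in Wagner pots was flooded to 4 cm depth and sown with the three weeds together; pots were kept in a greenhouse at 25° C. to 30° C. At the one to two leaf stage, an emulsion formulation diluted in water to a set rate went onto the water surface; scored three weeks later.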
# [3] = system: oval-leafed pondweed; experiment: Test Example 2: herbicidal activity, application during weed generation under submerged conditions (Table 17, symbol C); format: in vivo, oval-leafed pondweed (Monochoria vaginalis); conditions: AAH 320 g/ha; application during weed generation, submerged conditions
# Outline: as §1
# [4] = system: barnyard grass; experiment: Test Example 3: herbicidal effect by foliage application, Wagner pot (Table 18, symbol H); format: in vivo, barnyard grass (Echinochloa crus-galli); conditions: 320 g/ha
# Outline: (§2)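 Plants were sown in alluvial soil held under 0.1–0.5 cm standing water and grown 14 days in a greenhouse at 25–30 °C. An emulsifiable formulation, water-diluted to the set dose, was then sprayed onto the foliage, and effects were scored three weeks later using previously defined criteria.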
# [5] = system: Chinese sprangletop; experiment: Test Example 3: herbicidal effect by foliage application, Wagner pot (Table 18, symbol D); format: in vivo, chinese sprangletop (Leptochloa chinensis); conditions: 320 g/ha
# Outline: as §2
# [6] = system: rice flat sedge; experiment: Test Example 3: herbicidal effect by foliage application, Wagner pot (Table 18, symbol E); format: in vivo, rice flat sedge (Cyperus iria); conditions: 320 g/ha
# Outline: as §2
# [7] = system: southern crabgrass; experiment: Test Example 4: herbicidal effect by soil treatment (Table 19, symbol F); format: in vivo, southern crabgrass (Digitaria ciliaris); conditions: 320 g/ha
# Outline: (§3)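 In this soil treatment, the formulated compound reached the seeds only through the soil: seeds were buried about 1.5 cm deep in sterilized diluvial soil, then the diluted emulsion was sprayed over the surface. After three weeks at 25° C. to 30° C. in a greenhouse, effects were graded on criteria from an earlier test.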
# [8] = system: green foxtail; experiment: Test Example 4: herbicidal effect by soil treatment (Table 19, symbol G); format: in vivo, green foxtail (Setaria viridis); conditions: 320 g/ha
# Outline: as §3
# [9] = system: barnyard grass; experiment: Test Example 4: herbicidal effect by soil treatment (Table 19, symbol H); format: in vivo, barnyard grass (Echinochloa crus-galli); conditions: 320 g/ha
# Outline: as §3
# [10] = system: wild oat; experiment: Test Example 4: herbicidal effect by soil treatment (Table 19, symbol I); format: in vivo, wild oat (Avena fatua); conditions: 320 g/ha
# Outline: as §3
# [11] = system: blackgrass; experiment: Test Example 4: herbicidal effect by soil treatment (Table 19, symbol J); format: in vivo, blackgrass (Alopecurus myosuroides); conditions: 320 g/ha
# Outline: as §3
# [12] = system: Italian ryegrass; experiment: Test Example 4: herbicidal effect by soil treatment (Table 19, symbol K); format: in vivo, Italian ryegrass (Lolium multiflorum); conditions: 320 g/ha
# Outline: as §3
# [13] = system: windgrass; experiment: Test Example 4: herbicidal effect by soil treatment (Table 19, symbol L); format: in vivo, windgrass (Apera spica-venti); conditions: 320 g/ha
# Outline: as §3
# [14] = system: velvetleaf; experiment: Test Example 4: herbicidal effect by soil treatment (Table 19, symbol M); format: in vivo, velvetleaf (Abutilon theophrasti); conditions: 320 g/ha
# Outline: as §3
# [15] = system: redroot pigweed; experiment: Test Example 4: herbicidal effect by soil treatment (Table 19, symbol N); format: in vivo, redroot pigweed (Amaranthus retroflexus); conditions: 320 g/ha
# Outline: as §3
# [16] = system: lambsquarters; experiment: Test Example 4: herbicidal effect by soil treatment (Table 19, symbol O); format: in vivo, lambsquarters (Chenopodium album); conditions: 320 g/ha
# Outline: as §3
# [17] = system: chickweed; experiment: Test Example 4: herbicidal effect by soil treatment (Table 19, symbol P); format: in vivo, common chickweed (Stellaria media); conditions: 320 g/ha
# Outline: as §3
# [18] = system: persian speedwell; experiment: Test Example 4: herbicidal effect by soil treatment (Table 19, symbol R); format: in vivo, Persian speedwell (Veronica persica); conditions: 320 g/ha
# Outline: as §3
# [19] = system: southern crabgrass; experiment: Test Example 5: herbicidal effect by foliage application, plastic box (Table 20, symbol F); format: in vivo, southern crabgrass (Digitaria ciliaris); conditions: 320 g/ha
# Outline: (§4)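 Plants were sown into sterilized diluvial soil under about 1.5 cm cover and kept in a greenhouse at 25° C. to 30° C. Fourteen days on, foliage received an even spray of the diluted emulsion. Herbicidal or crop effect was judged three weeks afterwards.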
# [20] = system: green foxtail; experiment: Test Example 5: herbicidal effect by foliage application, plastic box (Table 20, symbol G); format: in vivo, green foxtail (Setaria viridis); conditions: 320 g/ha
# Outline: as §4
# [21] = system: barnyard grass; experiment: Test Example 5: herbicidal effect by foliage application, plastic box (Table 20, symbol H); format: in vivo, barnyard grass (Echinochloa crus-galli); conditions: 320 g/ha
# Outline: as §4
# [22] = system: wild oat; experiment: Test Example 5: herbicidal effect by foliage application, plastic box (Table 20, symbol I); format: in vivo, wild oat (Avena fatua); conditions: 320 g/ha
# Outline: as §4
# [23] = system: blackgrass; experiment: Test Example 5: herbicidal effect by foliage application, plastic box (Table 20, symbol J); format: in vivo, blackgrass (Alopecurus myosuroides); conditions: 320 g/ha
# Outline: as §4
# [24] = system: Italian ryegrass; experiment: Test Example 5: herbicidal effect by foliage application, plastic box (Table 20, symbol K); format: in vivo, Italian ryegrass (Lolium multiflorum); conditions: 320 g/ha
# Outline: as §4
# [25] = system: windgrass; experiment: Test Example 5: herbicidal effect by foliage application, plastic box (Table 20, symbol L); format: in vivo, windgrass (Apera spica-venti); conditions: 320 g/ha
# Outline: as §4
# [26] = system: velvetleaf; experiment: Test Example 5: herbicidal effect by foliage application, plastic box (Table 20, symbol M); format: in vivo, velvetleaf (Abutilon theophrasti); conditions: 320 g/ha
# Outline: as §4
# [27] = system: lambsquarters; experiment: Test Example 5: herbicidal effect by foliage application, plastic box (Table 20, symbol O); format: in vivo, lambsquarters (Chenopodium album); conditions: 320 g/ha
# Outline: as §4
# [28] = system: persian speedwell; experiment: Test Example 5: herbicidal effect by foliage application, plastic box (Table 20, symbol R); format: in vivo, Persian speedwell (Veronica persica); conditions: 320 g/ha
# Outline: as §4
# [29] = system: redroot pigweed; experiment: Test Example 5: herbicidal effect by foliage application, plastic box (Table 20, symbol N); format: in vivo, redroot pigweed (Amaranthus retroflexus); conditions: 320 g/ha, foliage application after 14-day growth, evaluated three weeks after application
# Outline: as §4
# [30] = system: chickweed; experiment: Test Example 5: herbicidal effect by foliage application, plastic box (Table 20, symbol P); format: in vivo, common chickweed (Stellaria media); conditions: 320 g/ha, foliage application after 14-day growth, evaluated three weeks after application
# Outline: as §4
# [31] = foliage application, 3 weeks after application
# [32] = foliage application after 14-day growth, evaluated three weeks after application
smiles,measurement,setting,value
CCCC(=O)Oc1c(C)nn(C)c(=O)c1-c1c(-c2ccc(C(F)(F)F)cc2)sc2ccc(F)cc12 [2-021],"herbicidal effect rating, A: late watergrass",[1],0 (Herbicidal rate of 5% or less (almost no effect))
same,"herbicidal effect rating, B: Japanese bulrush",[2],2 (Herbicidal rate of 20% or more and less than 40%)
same,"herbicidal effect rating, C: oval-leafed pondweed",[3],0 (Herbicidal rate of 5% or less (almost no effect))
same,"herbicidal effect on H (barnyard grass), rating 0-5",[4],5 (Herbicidal rate of 90% or more (almost completely withered))
same,"herbicidal effect on D (Chinese sprangletop), rating 0-5",[5],3 (Herbicidal rate of 40% or more and less than 70%)
same,"herbicidal effect on E (rice flat sedge), rating 0-5",[6],5 (Herbicidal rate of 90% or more (almost completely withered))
same,"herbicidal effect rating, F: southern crabgrass",[7],5 (Herbicidal rate of 90% or more (almost completely withered))
same,"herbicidal effect rating, G: green foxtail",[8],5 (Herbicidal rate of 90% or more (almost completely withered))
same,"herbicidal effect rating, H: barnyard grass",[9],4 (Herbicidal rate of 70% or more and less than 90%)
same,"herbicidal effect rating, I: wild oat",[10],0 (Herbicidal rate of 5% or less (almost no effect))
same,"herbicidal effect rating, J: blackgrass",[11],0 (Herbicidal rate of 5% or less (almost no effect))
same,"herbicidal effect rating, K: Italian ryegrass",[12],5 (Herbicidal rate of 90% or more (almost completely withered))
same,"herbicidal effect rating, L: windgrass",[13],5 (Herbicidal rate of 90% or more (almost completely withered))
same,"herbicidal effect rating, M: velvetleaf",[14],4 (Herbicidal rate of 70% or more and less than 90%)
same,"herbicidal effect rating, N: redroot pigweed",[15],5 (Herbicidal rate of 90% or more (almost completely withered))
same,"herbicidal effect rating, O: lambsquarters",[16],5 (Herbicidal rate of 90% or more (almost completely withered))
same,"herbicidal effect rating, P: chickweed",[17],5 (Herbicidal rate of 90% or more (almost completely withered))
same,"herbicidal effect rating, R: persian speedwell",[18],5 (Herbicidal rate of 90% or more (almost completely withered))
same,effect on southern crabgrass (F),[19]; [31],4 (Herbicidal rate of 70% or more and less than 90%)
same,effect on green foxtail (G),[20]; [31],5 (Herbicidal rate of 90% or more (almost completely withered))
same,effect on barnyard grass (H),[21]; [31],5 (Herbicidal rate of 90% or more (almost completely withered))
same,effect on wild oat (I),[22]; [31],5 (Herbicidal rate of 90% or more (almost completely withered))
same,effect on blackgrass (J),[23]; [31],3 (Herbicidal rate of 40% or more and less than 70%)
same,effect on Italian ryegrass (K),[24]; [31],5 (Herbicidal rate of 90% or more (almost completely withered))
same,effect on windgrass (L),[25]; [31],5 (Herbicidal rate of 90% or more (almost completely withered))
same,effect on velvetleaf (M),[26]; [31],5 (Herbicidal rate of 90% or more (almost completely withered))
same,effect on lambsquarters (O),[27]; [31],5 (Herbicidal rate of 90% or more (almost completely withered))
same,effect on persian speedwell (R),[28]; [31],5 (Herbicidal rate of 90% or more (almost completely withered))
CCCC(=O)Oc1c(C)nn(C)c(=O)c1-c1c(-c2ccc(C(F)(F)F)cc2F)sc2c(Cl)cccc12 [4-038],"herbicidal effect rating, A: late watergrass",[1],2 (Herbicidal rate of 20% or more and less than 40%)
same,"herbicidal effect rating, B: Japanese bulrush",[2],3 (Herbicidal rate of 40% or more and less than 70%)
same,"herbicidal effect rating, C: oval-leafed pondweed",[3],0 (Herbicidal rate of 5% or less (almost no effect))
same,herbicidal effect on barnyard grass (H),[4],4 (Herbicidal rate of 70% or more and less than 90%)
same,herbicidal effect on Chinese sprangletop (D),[5],5 (Herbicidal rate of 90% or more (almost completely withered))
same,herbicidal effect on rice flat sedge (E),[6],4 (Herbicidal rate of 70% or more and less than 90%)
same,herbicidal effect on F: southern crabgrass (evaluation grade 0-5),[19]; [32],0 (Herbicidal rate of 5% or less (almost no effect))
same,herbicidal effect on G: green foxtail (evaluation grade 0-5),[20]; [32],0 (Herbicidal rate of 5% or less (almost no effect))
same,herbicidal effect on H: barnyard grass (evaluation grade 0-5),[21]; [32],0 (Herbicidal rate of 5% or less (almost no effect))
same,herbicidal effect on I: wild oat (evaluation grade 0-5),[22]; [32],2 (Herbicidal rate of 20% or more and less than 40%)
same,herbicidal effect on J: blackgrass (evaluation grade 0-5),[23]; [32],0 (Herbicidal rate of 5% or less (almost no effect))
same,herbicidal effect on K: Italian ryegrass (evaluation grade 0-5),[24]; [32],4 (Herbicidal rate of 70% or more and less than 90%)
same,herbicidal effect on L: windgrass (evaluation grade 0-5),[25]; [32],5 (Herbicidal rate of 90% or more (almost completely withered))
same,herbicidal effect on M: velvetleaf (evaluation grade 0-5),[26]; [32],0 (Herbicidal rate of 5% or less (almost no effect))
same,herbicidal effect on N: redroot pigweed (evaluation grade 0-5),[29],0 (Herbicidal rate of 5% or less (almost no effect))
same,herbicidal effect on O: lambsquarters (evaluation grade 0-5),[27]; [32],0 (Herbicidal rate of 5% or less (almost no effect))
same,herbicidal effect on P: chickweed (evaluation grade 0-5),[30],4 (Herbicidal rate of 70% or more and less than 90%)
same,herbicidal effect on R: persian speedwell (evaluation grade 0-5),[28]; [32],4 (Herbicidal rate of 70% or more and less than 90%)
